In patent US12486218B2, “Compounds advantageous in the treatment of central nervous system diseases and disorders” (AurimMed Pharma, Inc., priority 2008, dated 2025):

Legend:
SMN2 promoter = SMN2 promoter β-lactamase reporter assay in NSC34 motor neuron-like cells; format: cell-based
Method: FIG. 30 illustrates a screen for SMN2 expression of a number of compounds described herein.
SMN2 promoter activity was measured using NSC34 motor neuron-like cells stably transfected with a β-lactamase (BLA) reporter gene under the control of a 3.4-kilobase fragment of the SMN2 promoter. D156844 was used as a positive control for this assay.

Drosophila = test: Rotenone-induced toxicity, Drosophila model of sporadic Parkinson's disease; format: in vivo
Description: FIGS. 26A-26C illustrate the effect of compound BX in another Parkinson's disease model. Chronic infusion of rotenone to fruit flies reproduces many features of Parkinson disease. Rotenone is a pesticide that inhibits mitochondrial complex I activity, thus creating an environment of oxidative stress in the cell. Many studies have employed rotenone to generate an experimental animal model of Parkinson's disease (PD) that mimics and elicits PD-like symptoms, such as motor and cognitive decline. […] Compound BX therefore protects Drosophila from the neurotoxic effects of rotenone and may prevent oxidative stress in dopaminergic neurons.

[1] = tested on: type II SMA fibroblasts (GM03813); test: SMN protein localization, gem counting in type II SMA fibroblasts; format: cell-based; conditions: 100 nM-10 μM, 5 days
Method: To validate the SMN2 promoter and exon 7 screens, the effects of compounds H, H (acid form), AY, F, BX, and BY were evaluated on the basis of expression and localization of SMN protein in type II SMA fibroblasts (GM03813). In a normal cell, SMN protein localized within the nucleus to discreet foci known as gems. In SMN-deficient SMA cells, the number of gems is greatly diminished. Although the function of gems is unknown, it is believed that they are somehow involved in the snRNP assembly function of SMN. Gem counting can, therefore, be considered an assay for SMN function.
GM03813 fibroblasts were treated with different doses (100 nM-10 μM) of compounds H, H (acid form), AY, F, BX, and BY for 5 days. SMN immunostaining was then completed on these cells and the number of gems was counted in 100 randomly-selected nuclei. […] In fact, the gem counts at the highest dose of compound H approach those observed for carrier fibroblasts (GM03814). When compared against treatment with 1 μM D157495—a D156844 derivative, all of the compounds tested performed as well as or, even better than D157495.

mice [2] = test: Mouse formalin pain model; format: in vivo; conditions: 76 mg/kg i.p., at 0.5 hours
rats [3] = test: Pilocarpine-induced Status Epilepticus in Rats (prevention; intervention @ 30 min)
Method: The animal testing was performed using the protocols developed in the Anticonvulsant Screening Program (ASP) at the National Institute of Neurological Disorders and Stroke (NINDS), National Institutes of Health (NIH).

in vivo = conditions: mouse, ip
Method: (§2) The animal testing was performed according to methods known in the relevant art.

mice [4] = test: Subcutaneous Metrazol Seizure threshold (s.c. MET) test, mice i.p.; format: in vivo; conditions: Mus musculus
mice [5] = test: MPTP-induced Parkinson's disease model in mice, behavioral assays; format: in vivo, C57/B16 male mice
Method: In FIG. 27A-27C, Data are Illustrated Showing the Effect of Oral Treatment of mice for two weeks with compound BX in an MPTP-induced Parkinson's disease model. MPTP (1-methyl-4-phenyl-1,2,3,6-tetrahydropyridine) is a neurotoxin precursor to MPP+, which causes permanent symptoms of Parkinson's disease by destroying dopaminergic neurons in the substantia nigra of the brain. It has been used to study disease models in various animal studies.
In the study, 9 month-old C57/B16 male mice were treated for 7 days of MPTP injection at a rate of 25 mg/kg dose: once a day. Mice in the treatment group were subsequently treated with 14 days of gavage with compound BX at a rate of 50 μg/gram dose: once a day. Treatment was followed with 5 days of behavioral assays
Mice were scored on the number of legs slips per crossing.
Mice tend to groom more often when they are healthy and feeling content.

mice [6] = test: Maximal Electroshock Seizure (MES) test, mice i.p.; format: in vivo; conditions: Mus musculus, ip
mice [7] = test: Audiogenic Seizure susceptible (AGS) test, mice i.p.; format: in vivo; conditions: Mus musculus, ip
mice [8] = test: Minimal motor impairment (MID50), mice i.p.; conditions: mice, i.p.
Method: as §2

rats [9] = test: Sciatic nerve ligation model in rats; format: in vivo; conditions: 62 mg/kg, at 0.5 hours
Method: [The response (threshold for foot withdrawal) was measured in grams.]

rats [10] = test: s.c. MET test, rats p.o.; format: in vivo; conditions: Rattus norvegicus, p.o.
mice [11] = test: Corneal kindled mouse model; format: in vivo; conditions: mice i.p.; 50 mg/kg @ 1.0 hr
mice [12] = test: 6 Hz (minimal clonic seizure) model, mice i.p.; format: in vivo; conditions: Mus musculus, ip; mice, i.p.; read-out: 6 Hz ED50
CYP-450 2B6 = CYP-450 2B6 (Homo sapiens, UniProt P20813); test: In vitro human CYP-450 study, 2B6; format: in vitro ADME; conditions: human enzyme
Description: (§1) On the other hand, it is an inhibitor for 2C19, 2D6, 2A6 and 2C9.

CYP-450 2E1 = CYP-450 2E1 (Homo sapiens, UniProt P05181); test: In vitro human CYP-450 study, 2E1; format: in vitro ADME; conditions: human enzyme
Description: as §1

[13] = tested on: CYP2C19, CYP2D6, CYP2A6, CYP2C9; test: In vitro human CYP-450 study, Ki values over the enzymes; format: in vitro ADME; conditions: range over the enzymes, not assigned to single isoforms
Description: as §1

[14] = Rattus norvegicus, 0.5 h, read-out: Intervention @ 30 min, Protection
[15] = Rattus norvegicus, read-out: Prevention, Protection

Chain of CYP-450 2B6 (P20813 whole entry): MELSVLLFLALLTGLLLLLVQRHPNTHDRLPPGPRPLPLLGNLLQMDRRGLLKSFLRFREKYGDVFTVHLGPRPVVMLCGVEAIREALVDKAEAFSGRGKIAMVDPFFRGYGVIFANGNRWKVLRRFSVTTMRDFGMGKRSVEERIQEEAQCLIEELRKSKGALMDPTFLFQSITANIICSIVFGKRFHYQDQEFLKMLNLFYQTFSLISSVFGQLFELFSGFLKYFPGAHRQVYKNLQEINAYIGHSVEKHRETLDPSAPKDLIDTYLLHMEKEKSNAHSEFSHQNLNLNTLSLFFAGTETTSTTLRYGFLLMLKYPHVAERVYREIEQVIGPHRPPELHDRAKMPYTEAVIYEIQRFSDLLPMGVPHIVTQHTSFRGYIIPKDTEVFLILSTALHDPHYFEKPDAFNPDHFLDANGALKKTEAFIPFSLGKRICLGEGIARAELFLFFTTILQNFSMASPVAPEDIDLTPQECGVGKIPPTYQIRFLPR
Chain of CYP-450 2E1 (P05181 whole entry): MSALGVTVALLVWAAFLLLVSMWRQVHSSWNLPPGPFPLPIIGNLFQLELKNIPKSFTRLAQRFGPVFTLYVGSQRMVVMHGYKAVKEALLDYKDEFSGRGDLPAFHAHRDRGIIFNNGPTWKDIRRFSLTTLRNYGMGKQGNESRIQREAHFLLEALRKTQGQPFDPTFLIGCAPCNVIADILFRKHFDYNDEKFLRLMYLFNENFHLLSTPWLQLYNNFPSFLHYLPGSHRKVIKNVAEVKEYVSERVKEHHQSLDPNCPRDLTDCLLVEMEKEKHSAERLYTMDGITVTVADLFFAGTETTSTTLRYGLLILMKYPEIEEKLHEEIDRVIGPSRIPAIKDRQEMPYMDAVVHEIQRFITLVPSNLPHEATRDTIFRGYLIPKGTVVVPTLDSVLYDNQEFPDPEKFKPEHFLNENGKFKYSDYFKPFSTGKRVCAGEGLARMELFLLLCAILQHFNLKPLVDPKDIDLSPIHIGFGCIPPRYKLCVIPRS

Q: Which “SMN2 promoter assay, particularly strong hits” value (SMN2 promoter; NSC34 BLA reporter cells) does the source give for `C[C@H](CC(N)=O)c1ccc(OC(F)(F)F)cc1` (single isomer, unassigned) [Compound BX, R-(−)-3-(4-Trifluoromethoxy-phenyl)butyramide] here?
A: Particularly strong hits

Q: And the “Promoter (SMN2 promoter test, summary YES/NO)” value (SMN2 promoter; Table 13 summary)?
A: YES

Q: What about the SMN2 promoter activity (SMN2 promoter; treatment for 19 hours at a concentration of 1 μM) of the same molecule?
A: increased SMN2 promoter activity

Q: What about the “survival of Drosophila exposed to rotenone” value (Drosophila; 500 μM rotenone) of the same molecule?
A: enhances survival

Q: What about the “locomotion speed in rotenone-treated flies” value (Drosophila; rotenone-treated Drosophila versus mock-treated controls) of the same molecule?
A: increases locomotion speed in rotenone-treated flies to a level virtually indistinguishable from mock-treated controls

Q: What about the “gem counts (SMN immunostaining, 100 nuclei)” value [1] of the same molecule?
A: increase gem counts in a dose-dependent manner

Q: What about the “pain response, acute phase” value (mice [2]) of the same molecule?
A: 84 % of the control

Q: And the “pain response, inflammatory phase” value (mice [2])?
A: 41 % of the control

Q: And the responders at 155 mg/kg (rats [3]; [14])?
A: 50%

Q: And the responders at 100 mg/kg (rats [3]; [15])?
A: 100%

Q: And the “effect on convulsive SE” value (rats [3]; rats, 200 mg/kg, administered 30′ after the first stage 3 seizure)?
A: halted the convulsive SE

Q: What about the TD50 at 0.25 hr (in vivo) of the same molecule?
A: 104 mg/kg

Q: And the ED50 (mice [4]; mice i.p., @ 1.0 hr)?
A: 51.4 mg/kg

Q: What about the “hindlimb clasping test, abnormal involuntary movement” value (mice [5]; gavage 50 μg/gram once a day for 14 days) of the same molecule?
A: reduced MPTP-induced abnormal involuntary movement

Q: And the “coat grooming test, grooming behavior” value (mice [5]; oral treatment for two weeks)?
A: significantly improved the grooming behavior

Q: And the “crossbeam test, motor coordination / leg slips” value (mice [5]; oral treatment for two weeks)?
A: significantly improved the motor coordination and reduced the number of leg slips

Q: What about the ED50 (mice [6]; mice i.p., @ 1.0 hr) of the same molecule?
A: 47.9 mg/kg

Q: What about the ED50 (mice [7]; mice i.p., @ 0.5 hr) of the same molecule?
A: 16.5 mg/kg

Q: For `CC(CC(N)=O)c1ccc(OC(F)(F)F)cc1` (racemic) [Compound H, 3-[4-(trifluoromethoxy)-phenyl]butyramide], which “gem counts (SMN immunostaining, 100 nuclei)” value [1] is on record?
A: increase gem counts in a dose-dependent manner

Q: What about the “relative potency in increasing gem counts” value [1] of the same molecule?
A: most potent

Q: And the “MID50 (median minimal motor impairment dose)” value (mice [8])?
A: 158.98 mg/kg

Q: What about the allodynic threshold (rats [9]) of the same molecule?
A: 455 % of the control

Q: What about the “pain response, acute phase” value (mice [2]) of the same molecule?
A: 63 % of the control

Q: What about the “pain response, inflammatory phase” value (mice [2]) of the same molecule?
A: 63 % of the control

Q: What about the responders at 176 mg/kg (rats [3]; [14]) of the same molecule?
A: 97%

Q: What about the responders at 200 mg/kg (rats [3]; [15]) of the same molecule?
A: 86%

Q: What about the TD50 (in vivo) of the same molecule?
A: 159 mg/kg

Q: And the ED50 (rats [10])?
A: 88.1 mg/kg

Q: And the ED50 (mice [4]; mice i.p., @ 0.5 hrs)?
A: 91.4 mg/kg

Q: What about the ED50 (mice [4]; mice, i.p.) of the same molecule?
A: 91.4 mg/kg

Q: And the “Corneal Kindled, Average seizure score” value (mice [11])?
A: 2: (0, 4,

Q: And the “Corneal Kindled, fraction of animals” value (mice [11])?
A: 2/4 @

Q: What about the ED50 (mice [12]) of the same molecule?
A: 55 mg/kg

Q: And the “inhibition of CYP-450 2B6” value (CYP-450 2B6)?
A: either no or only a remote possibility of inhibiting

Q: And the “inhibition of CYP-450 2E1” value (CYP-450 2E1)?
A: either no or only a remote possibility of inhibiting

Q: And the ED50 (mice [6]; mice)?
A: 76.1 mg/kg

Q: What about the ED50 (mice [6]; mice i.p., @ 0.5 hrs) of the same molecule?
A: 76.1 mg/kg

Q: What about the Ki [13] of the same molecule?
A: 29 to 174 µM

Q: What about the ED50 (mice [7]; mice) of the same molecule?
A: 22.5 mg/kg

Q: And the ED50 (mice [7]; mice i.p., @ 0.5 hr)?
A: 22.5 mg/kg
